Data on twelve molecules can be found in patent EP2228429A1, “Shading dye and catalyst combination” (Unilever PLC, priority 2009, dated 2010).

The nature of test [1]: Example 2: shading of cotton washed with Persil Colour powder containing acid blue 25, catalyst and hydrogen peroxide (reflectometer, delta E). Also noted: key: reflectometer delta E vs cloth washed without added dye or bleach. The settings on record: 0.3% acid blue 25 in powder, 2.5g/L, 30°C, 30 minutes. Here is the method: Various amounts of catalyst AC and DC were separately added to Persil Colour (TM) washing powder, such that when the powder was dosed at 2.5g/L a 1, 2, 4 and 8 micromolar solution of the catalysts were obtained. Persil Colour is a commercial washing powder containing 5-15% anionic surfactant and non-ionic surfactant, 15-30% zeolite and less than 5% soap, polycarboxylate and phosphate. It also contains enzymes. 0.3% of the dye acid blue 25 was also added to the powder. The so-created powders were used to wash bleach non-mercerised woven cotton at 30°C, for 30 minutes with a liquor to cloth ration of 30:1 and 2.5g/L powder. Various amounts of hydrogen peroxide was added to activate the catalyst. Following the wash the clothes were rinsed dried and the shading on the cloth measured using a reflectometer and expressed as the delta E values relative to cloth washed with Persil Colour without added dye or bleach system.

A short description of test [2]: Example 3: bleaching of BC1 stain monitor cloth with catalyst AC and hydrogen peroxide (delta E). The settings on record: pH=10, 0.5g/L LAS, 30°C, 30 minutes. How it is done: BC1 (fixed tea stain) bleachable stain test monitor cloth was washed in a bicarbonate buffer (pH=10) with 0.5g/L LAS surfactant, a Liquor to Cloth ratio of 60:1, a temperature of 30°C and a wash time of 30 minutes. The experiment was repeated with various levels of catalyst AC and hydrogen peroxide. The final colour of the cloth was measured and expressed as the delta E relative to a clean piece of cotton. Lower values indicate effective bleaching of the stain.

Test [3] can be described thus: Example 7: shading of white cotton washed with Persil Colour containing direct violet 51 and bleach system. The settings on record: 100 ppb direct violet 51, 5g/L Persil Colour, 40°C, 30 minutes. Here is the method: (§1) White non-mercerised cotton sheeting was washed at 40°C in 5g/L Persil Colour for 30 minutes with a liquor to cloth ratio of 60:1. Persil Colour is a zeolite/anionic/non-ionic surfactant based washing powder. Direct Violet 51 was added to the powder such that 100 ppb of direct violet 51 was in the wash liquor.
(§2) The experiment was repeated with the addition of 10 micromolar catalyst with 10 millimolar peroxide and 2 micromolar catalyst with 2 millimolar peroxide. Following rinsing and drying the colour of the cloth was measured relative to a white cotton control cloth washed without addition of direct violet 51.

Test [4] can be described thus: Example 7: bleaching of BC1 monitor washed with Persil Colour and bleach system. The settings on record: no direct violet 51, liquor to cloth ratio 120:1. Here is the method: as §1, §2
The experiment was then repeated using a BC1 model tea bleach monitor and a liquor to cloth ratio of 120:1. For clarity no direct violet 51 was added to the Persil Colour in this case.

Test [5] in a line: Example 1: bleaching of shading dyes in pH=10 buffer by catalyst AC and hydrogen peroxide, from optical density. The settings on record: after 30 minutes at 20 °C; for % bleaching (a): (a) 1 micromolar AC, 1 millimolar hydrogen peroxide; for % bleaching (b): (b) 4 micromolar AC, 4 millimolar hydrogen peroxide. Here is the method:
A selection of shading dyes, which deposit onto cotton from wash solutions and have varying structures, was made. Solution of these dyes were made in pH=10 buffer such that the optical density at 1 cm was approximately 1. To this solution the catalyst AC was added alongside hydrogen peroxide such that the concentrations were: • (a) 1 micromolar AC, 1 millimolar hydrogen peroxide • (b) 4 micromolar AC, 4 millimolar hydrogen peroxide The optical density of the dye was measured at the beginning of the experiment and after 30 minutes at 20 °C. From these measurements the % of dye bleaching was calculated using the equation % bleaching = 100 x (ODinitial-OD30 minutes)/ODinitial [formula]

Test [6] is described as follows: Example 5: dye bleaching in solution at pH=10 by catalyst and peroxide. The source says: Bleaching was much slower with […] 2 millimolar peroxide.
Test [7] can be described thus: Example 6: take up of hydrophobic shading dyes by polyester in a wash with catalyst and hydrogen peroxide (delta E). The settings on record: 0.2ppm dye, 1.8g/L powder, 30 minutes at 20°C. How it is done:
White knitted polyester was washed for 30 minutes at 20°C in 1.8g/L of Brihlante™ washng powder (ex Brasil) with a liquor to cloth ration of 100:1. This is a phosphate/anionic surfactant based powder. Various levels of catalyst BC and hydrogen peroxide was added to the wash liquor alongside 0.2ppm of the hydrophobic shading dyes disperse blue 79:1 (azo dye) and solvent violet 13 (anthraquinone dye). The take up of the hydrophobic shading by the polyester was measured as the delta E relative to white cotton and the results shown below.

Test [8] can be described thus: Example 4: bleaching of black tea stain on cotton sheeting. The settings on record: pH=10 solution, 2 micromolar DC and 2 millimolar peroxide; versus control with 2 micromolar Mn(II) and 2 millimolar peroxide. How it is done: Black tea beverage was created by placing 1 PG Tips pyramid tea bag in 400ml of boiled ultrapure water for 5 minutes. The tea bag was then removed and the beverage cooled to room temperature. Non-mercerised non-fluorescent white cotton sheeting was dipped in the cold tea and removed. The cloth was left to dry for 1 day in the dark, then used for experiments.

Setting [9] is: 1 micromolar catalyst, 1 millimolar H2O2, relative to cloth washed without dye or bleach system.
Where [10] appears, read: 2 micromolar catalyst, 2 millimolar H2O2.
Setting [11] is: 4 micromolar catalyst, 4 millimolar H2O2.
Where [12] appears, read: 8 micromolar catalyst, 8 millimolar H2O2.
[13] abbreviates: 2 micromolar catalyst, 2 millimolar H2O2, colour relative to white cotton control washed without dye.
Where [14] appears, read: 10 micromolar catalyst, 10 millimolar H2O2.
Setting [15] is: pH=10, 2 micromolar catalyst with 2 millimolar peroxide.
[16] abbreviates: pH=10, 10 micromolar catalyst with 10 millimolar peroxide.
[17] abbreviates: 0 micromolar catalyst, 0 millimolar H2O2.
Where [18] appears, read: 1 micromolar catalyst, 1 millimolar H2O2.
Where [19] appears, read: 2 millimolar H2O2 without catalyst.
Setting [20] is: 10 millimolar H2O2 without catalyst.

Molecules are shown by their SMILES.

For the molecule `COC(=O)C12CN(C(C)CN(C)C)CC(C(=O)OC)(C1=O)C(c1ccccn1)N(C)C2c1ccccn1` (stereo not shown) [AC], the “Delta E” value in test [1] (setting [9]) is recorded as 5.1; in test [1] (setting [10]), 2.0; in test [1] (setting [11]), 0.4; in test [1] (setting [12]), 0.3; in test [2] (1 micromolar AC, 1 millimolar H2O2, relative to clean cotton, lower = effective bleaching) it was 17.0; in test [2] (1 micromolar AC, 2 millimolar H2O2), 16.2. The “Delta E” value in test [2] (2 micromolar AC, 1 millimolar H2O2) is reported as 15.9; in test [2] (2 micromolar AC, 2 millimolar H2O2), 14.6. Besides, the White cotton in test [3] (setting [13]) was determined as 1.5; in test [3] (setting [14]) it was 0.5. Further, the results for the BC1 in test [4] (setting [10]) and in test [4] (setting [14]) were 16.5 and 10.9, respectively.

On to `Nc1c(N=Nc2ccc([N+](=O)[O-])cc2)c(S(=O)(=O)[O-])cc2cc(S(=O)(=O)[O-])c(N=Nc3ccccc3)c(O)c12.[Na+].[Na+]` [Acid black 1], for which, in test [5], the “% bleaching (a)” value is 27% and the “% bleaching (b)” value is recorded as 53%.

Take `Nc1c(S(=O)(=O)[O-])cc(Nc2ccccc2)c2c1C(=O)c1ccccc1C2=O.[Na+]` [Acid blue 25]: in test [5], the “% bleaching (a)” value was 66% and the “% bleaching (b)” value was found to be 96%.

As for `O=S(=O)([O-])c1cccc(N=Nc2ccc(N=Nc3ccc(Nc4ccccc4)c4c(S(=O)(=O)[O-])cccc34)c3ccccc23)c1.[Na+].[Na+]` [Acid blue 113], in test [5], the “% bleaching (a)” value turned out to be 79% and the “% bleaching (b)” value was 99%.

As for `COC(=O)C12CN(CCN(C)C)CC(C(=O)OC)(C1=O)C(c1ccccn1)N(C)C2c1ccccn1` (stereo not shown) [BC], in test [6] (setting [15]), the “bleaching of Acid blue 25 in solution” value is on record as “much slower” and the “bleaching of Direct violet 51 in solution” value is “much slower”. For the same molecule, in test [6] (setting [16]), the “bleaching of Acid blue 25 in solution” value is “effectively bleached” and the “bleaching of Direct violet 51 in solution” value is listed as “effectively bleached”.

Take `COc1cc(N=Nc2c(Br)cc([N+](=O)[O-])cc2[N+](=O)[O-])c(NC(C)=O)cc1N(CCOC(C)=O)CCOC(C)=O` [Blue 79:1, disperse blue 79:1]: the results for the “Delta E” value in test [7] (setting [17]), in test [7] (setting [18]) and in test [7] (setting [14]) were 2.8, 2.8 and 2.3, respectively.

As to `COC(=O)C12CN(CCN3CCOCC3)CC(C(=O)OC)(C1=O)C(c1ccccn1)N(C)C2c1ccccn1` (stereo not shown) [CC], in test [6] (setting [15]), the “bleaching of Acid blue 25 in solution” value was “much slower” and the “bleaching of Direct violet 51 in solution” value is “much slower”. In test [6] (setting [16]), the “bleaching of Acid blue 25 in solution” value is recorded as “effectively bleached” and the “bleaching of Direct violet 51 in solution” value is on record as “effectively bleached”.

Turning to `OO` [Catalyst H2O2, hydrogen peroxide], the “Delta E” value in test [2] (0 micromolar AC, 1 millimolar H2O2 alone) came to 18.5; in test [2] (0 micromolar AC, 2 millimolar H2O2 alone) it was 18.1. Further, the White cotton in test [3] (setting [19]) is 1.5; in test [3] (setting [20]), 1.4. Besides, the BC1 was 19.3 in test [4] (setting [19]) and 18.9 in test [4] (setting [20]).

For the molecule `Oc1cc(-c2ccccn2)nc(-c2ccccn2)c1` [DC], the “Delta E” value is recorded as 12.3 in test [1] (setting [9]), 12.2 in test [1] (setting [10]), 12.0 in test [1] (setting [11]) and 11.7 in test [1] (setting [12]). Further, the “bleaching of the tea stain” value in test [8] is on record as “significantly above that of a control solution”.

Consider `COc1cc(N=Nc2c(C)cc(C)cc2S(=O)(=O)[O-])c(C)cc1N=Nc1c(S(=O)(=O)[O-])cc2cc(Nc3ccccc3)ccc2c1O.[Na+].[Na+]` [Direct violet 51], for which, in test [5], the “% bleaching (a)” value is 1% and the “% bleaching (b)” value turned out to be 29%.

On to `COC(=O)C12CN(CCN3CCCC3)CC(C(=O)OC)(C1=O)C(c1ccccn1)N(C)C2c1ccccn1` (stereo not shown) [EC], for which the White cotton in test [3] (setting [13]) is 1.5; in test [3] (setting [14]) it was 0.7. Moreover, the BC1 in test [4] (setting [10]) came out at 17.5; in test [4] (setting [14]), 13.1.

Consider `Cc1ccc(Nc2ccc(O)c3c2C(=O)c2ccccc2C3=O)cc1` [Violet 13, solvent violet 13], for which the “Delta E” value in test [7] (setting [17]) came to 4.0; in test [7] (setting [18]), 1.6; in test [7] (setting [14]) it was 0.2.
